Test results from the supplement of paper PMC10307832.

Assays:
Experiment in all cases: relative viability (nuclei count vs DMSO), 5 days (fraction); higher = more cells survive
VX-11e + Vorinostat = compound: CC1=CN=C(N=C1C2=CNC(=C2)C(=O)N[C@H](CO)C3=CC(=CC=C3)Cl)NC4=C(C=C(C=C4)F)Cl [VX-11e] + O=C(CCCCCCC(=O)Nc1ccccc1)NO [Vorinostat] (partner 1 µM)
Procedure, shortened: (§1)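 Relative viability is defined as nuclei in treated wells over nuclei in vehicle wells. Duplicate plates were run and medians reported. Lung cancer cell lines in 1536-well plates were dosed by pin tool one day after seeding, with one drug or with a fixed anchor-drug dose plus five library-drug doses (not always all listed) in √10 steps, and nuclei were counted after 5 days.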

VX-11e + Pemetrexed = compound: CC1=CN=C(N=C1C2=CNC(=C2)C(=O)N[C@H](CO)C3=CC(=CC=C3)Cl)NC4=C(C=C(C=C4)F)Cl [VX-11e] + Nc1nc2[nH]cc(CCc3ccc(C(=O)N[C@@H](CCC(=O)O)C(=O)O)cc3)c2c(=O)[nH]1 [Pemetrexed] (partner 0.2 µM)
Procedure, shortened: as §1

VX-11e + Dasatinib = compound: CC1=CN=C(N=C1C2=CNC(=C2)C(=O)N[C@H](CO)C3=CC(=CC=C3)Cl)NC4=C(C=C(C=C4)F)Cl [VX-11e] + Cc1nc(Nc2ncc(C(=O)Nc3c(C)cccc3Cl)s2)cc(N2CCN(CCO)CC2)n1 [Dasatinib] (partner 0.075 µM)
Procedure, shortened: as §1

VX-11e + Palbociclib = compound: CC1=CN=C(N=C1C2=CNC(=C2)C(=O)N[C@H](CO)C3=CC(=CC=C3)Cl)NC4=C(C=C(C=C4)F)Cl [VX-11e] + CC(=O)c1c(C)c2cnc(Nc3ccc(N4CCNCC4)cn3)nc2n(C2CCCC2)c1=O [Palbociclib] (partner 0.5 µM)
Procedure, shortened: as §1

NCI-H2405 showed a relative viability (VX-11e + Vorinostat; first compound 0.04 µM) of 0.993, a relative viability (VX-11e + Vorinostat; first compound 0.1265 µM) of 0.866 and a relative viability (VX-11e + Vorinostat; first compound 0.4 µM) of 1.22. It also gave a relative viability (VX-11e + Vorinostat; first compound 1.265 µM) of 0.918, a relative viability (VX-11e + Vorinostat; first compound 4 µM) of 0.565 and a relative viability (VX-11e + Pemetrexed; first compound 0.04 µM) of 1.09. It also gave a relative viability (VX-11e + Pemetrexed; first compound 0.1265 µM) of 0.957, a relative viability (VX-11e + Pemetrexed; first compound 0.4 µM) of 0.678 and a relative viability (VX-11e + Pemetrexed; first compound 1.265 µM) of 0.989. It also gave a relative viability (VX-11e + Pemetrexed; first compound 4 µM) of 0.501, a relative viability (VX-11e + Dasatinib; first compound 0.04 µM) of 0.204 and a relative viability (VX-11e + Dasatinib; first compound 0.1265 µM) of 0.186. The relative viability (VX-11e + Dasatinib; first compound 0.4 µM) was 0.15, the relative viability (VX-11e + Dasatinib; first compound 1.265 µM) was 0.151 and the relative viability (VX-11e + Dasatinib; first compound 4 µM) was 0.128. The relative viability (VX-11e + Palbociclib; first compound 0.04 µM) was 0.579, the relative viability (VX-11e + Palbociclib; first compound 0.1265 µM) was 0.506 and the relative viability (VX-11e + Palbociclib; first compound 0.4 µM) was 0.385. The relative viability (VX-11e + Palbociclib; first compound 1.265 µM) was 0.513 and the relative viability (VX-11e + Palbociclib; first compound 4 µM) was 0.328.
Cell Line NCI-H3122 has a relative viability (VX-11e + Vorinostat; first compound 0.04 µM) of 0.85, a relative viability (VX-11e + Vorinostat; first compound 0.1265 µM) of 0.885 and a relative viability (VX-11e + Vorinostat; first compound 0.4 µM) of 0.684. For the same cell line, the relative viability (VX-11e + Vorinostat; first compound 1.265 µM) was 0.987, the relative viability (VX-11e + Vorinostat; first compound 4 µM) was 0.589 and the relative viability (VX-11e + Pemetrexed; first compound 0.04 µM) was 0.202. It also gave a relative viability (VX-11e + Pemetrexed; first compound 0.1265 µM) of 0.205, a relative viability (VX-11e + Pemetrexed; first compound 0.4 µM) of 0.162 and a relative viability (VX-11e + Pemetrexed; first compound 1.265 µM) of 0.171. For the same cell line, the relative viability (VX-11e + Pemetrexed; first compound 4 µM) was 0.152, the relative viability (VX-11e + Dasatinib; first compound 0.04 µM) was 0.7 and the relative viability (VX-11e + Dasatinib; first compound 0.1265 µM) was 0.637. The relative viability (VX-11e + Dasatinib; first compound 1.265 µM) was 0.476, the relative viability (VX-11e + Dasatinib; first compound 4 µM) was 0.224 and the relative viability (VX-11e + Palbociclib; first compound 0.04 µM) was 0.211. It also gave a relative viability (VX-11e + Palbociclib; first compound 0.1265 µM) of 0.164, a relative viability (VX-11e + Palbociclib; first compound 0.4 µM) of 0.168 and a relative viability (VX-11e + Palbociclib; first compound 1.265 µM) of 0.166. It also gave a relative viability (VX-11e + Palbociclib; first compound 4 µM) of 0.135.
In the case of PC-3 [JPC-3], the relative viability (VX-11e + Vorinostat; first compound 0.04 µM) is reported as 0.752, the relative viability (VX-11e + Vorinostat; first compound 0.1265 µM) is reported as 0.708 and the relative viability (VX-11e + Vorinostat; first compound 0.4 µM) is reported as 1.01. For the same cell line, the relative viability (VX-11e + Vorinostat; first compound 1.265 µM) was 0.646, the relative viability (VX-11e + Vorinostat; first compound 4 µM) was 0.755 and the relative viability (VX-11e + Pemetrexed; first compound 0.04 µM) was 1.08. It also gave a relative viability (VX-11e + Pemetrexed; first compound 0.1265 µM) of 1.09, a relative viability (VX-11e + Pemetrexed; first compound 0.4 µM) of 1.12 and a relative viability (VX-11e + Pemetrexed; first compound 1.265 µM) of 0.976. The relative viability (VX-11e + Pemetrexed; first compound 4 µM) was 0.846, the relative viability (VX-11e + Dasatinib; first compound 0.04 µM) was 0.904 and the relative viability (VX-11e + Dasatinib; first compound 0.1265 µM) was 0.903. For the same cell line, the relative viability (VX-11e + Dasatinib; first compound 0.4 µM) was 0.886, the relative viability (VX-11e + Dasatinib; first compound 1.265 µM) was 1.16 and the relative viability (VX-11e + Dasatinib; first compound 4 µM) was 0.883. For the same cell line, the relative viability (VX-11e + Palbociclib; first compound 0.04 µM) was 0.565, the relative viability (VX-11e + Palbociclib; first compound 0.1265 µM) was 0.558 and the relative viability (VX-11e + Palbociclib; first compound 0.4 µM) was 0.519. It also gave a relative viability (VX-11e + Palbociclib; first compound 1.265 µM) of 0.624 and a relative viability (VX-11e + Palbociclib; first compound 4 µM) of 0.546.
With PC-14 the relative viability (VX-11e + Vorinostat; first compound 0.04 µM) was 0.747, the relative viability (VX-11e + Vorinostat; first compound 0.1265 µM) was 0.692 and the relative viability (VX-11e + Vorinostat; first compound 0.4 µM) was 0.355. The relative viability (VX-11e + Vorinostat; first compound 1.265 µM) was 0.58, the relative viability (VX-11e + Vorinostat; first compound 4 µM) was 0.302 and the relative viability (VX-11e + Pemetrexed; first compound 0.04 µM) was 0.132. It also gave a relative viability (VX-11e + Pemetrexed; first compound 0.1265 µM) of 0.108, a relative viability (VX-11e + Pemetrexed; first compound 0.4 µM) of 0.148 and a relative viability (VX-11e + Pemetrexed; first compound 1.265 µM) of 0.134. The relative viability (VX-11e + Pemetrexed; first compound 4 µM) was 0.112, the relative viability (VX-11e + Dasatinib; first compound 0.04 µM) was 0.359 and the relative viability (VX-11e + Dasatinib; first compound 0.1265 µM) was 0.237. It also gave a relative viability (VX-11e + Dasatinib; first compound 0.4 µM) of 0.168, a relative viability (VX-11e + Dasatinib; first compound 1.265 µM) of 0.319 and a relative viability (VX-11e + Dasatinib; first compound 4 µM) of 0.109. It also gave a relative viability (VX-11e + Palbociclib; first compound 0.04 µM) of 0.551, a relative viability (VX-11e + Palbociclib; first compound 0.1265 µM) of 0.497 and a relative viability (VX-11e + Palbociclib; first compound 0.4 µM) of 0.374. For the same cell line, the relative viability (VX-11e + Palbociclib; first compound 1.265 µM) was 0.252 and the relative viability (VX-11e + Palbociclib; first compound 4 µM) was 0.19.
